As usually defined, the IC50 is the concentration at which inhibition is half-maximal.

The structures appear in SMILES notation.

The assay concerns the target T1, AR (Homo sapiens, UniProt P10275, T878A).
T1 construct: into the androgen-dependent PCa cells (LNCaP); endogenous in cells; host or cells: LNCaP-ARR2PB-eGFP
T1 sequence (P10275 1-920 T878A): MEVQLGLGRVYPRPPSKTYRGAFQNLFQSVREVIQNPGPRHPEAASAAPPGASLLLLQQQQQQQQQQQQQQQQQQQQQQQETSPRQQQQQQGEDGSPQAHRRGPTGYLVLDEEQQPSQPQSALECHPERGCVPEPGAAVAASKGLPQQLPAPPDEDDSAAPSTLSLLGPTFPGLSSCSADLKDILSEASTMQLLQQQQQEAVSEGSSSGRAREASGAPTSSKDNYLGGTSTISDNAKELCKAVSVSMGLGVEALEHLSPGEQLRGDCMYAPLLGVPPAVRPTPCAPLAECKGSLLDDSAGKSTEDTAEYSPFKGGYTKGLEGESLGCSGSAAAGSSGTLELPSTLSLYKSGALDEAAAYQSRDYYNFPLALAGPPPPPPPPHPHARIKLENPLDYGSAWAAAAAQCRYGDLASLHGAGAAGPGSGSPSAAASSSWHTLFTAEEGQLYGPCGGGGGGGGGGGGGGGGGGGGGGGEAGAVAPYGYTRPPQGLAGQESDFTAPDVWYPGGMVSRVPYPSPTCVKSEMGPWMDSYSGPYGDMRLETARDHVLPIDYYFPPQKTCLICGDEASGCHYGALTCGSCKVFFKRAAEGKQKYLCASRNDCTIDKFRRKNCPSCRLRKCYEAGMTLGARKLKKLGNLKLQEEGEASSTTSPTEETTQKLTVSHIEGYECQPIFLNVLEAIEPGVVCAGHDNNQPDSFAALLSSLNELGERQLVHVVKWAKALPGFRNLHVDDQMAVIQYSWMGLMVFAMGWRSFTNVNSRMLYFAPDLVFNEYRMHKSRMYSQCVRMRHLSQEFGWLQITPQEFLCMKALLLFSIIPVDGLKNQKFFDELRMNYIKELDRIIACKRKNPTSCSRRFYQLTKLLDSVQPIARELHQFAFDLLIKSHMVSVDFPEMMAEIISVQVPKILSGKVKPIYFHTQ
The experiment in a line: AR transcriptional activity, LNCaP-ARR2PB-eGFP reporter cells. Format: cell-based. Particulars: read-out: IC50 AR transcriptional activities. An excerpt: Detection principles: We conducted a stable transfection of promoter ARR2PB known for its strong AR responsiveness, into the androgen-dependent PCa cells (LNCaP). The expression of enhanced green fluorescent protein (eGFP) is depending on the degree of activation of AR. Therefore, LNCaP-ARR2PB-eGFP cell line could quantitatively determine the AR antagonistic activities of the compounds by evaluating the expression of eGFP.
Regarding `Cc1sc(-c2cccc(OC(F)F)c2)cc1C(=O)Nc1nc(CN2CCCCC2)ns1` [Compound C-56, 5-(3-(Difluoromethoxy)phenyl)-2-methyl-N-(3-(piperidin-1-ylmethyl)-1,2,4-thiadiazol-5-yl)thiophene-3-carboxamide], the IC50 stood at 12.9 µM.
`Cc1sc(-c2cccc(OC(F)F)c2)cc1C(=O)Nc1nc(CN2CCOCC2)ns1` [Compound C-57, 5-(3-(Difluoromethoxy)phenyl)-2-methyl-N-(3-(morpholinomethyl)-1,2,4-thiadiazol-5-yl)thiophene-3-carboxamide]: the IC50 was 13.3 µM.
To `Cc1sc(-c2cccc(OC(F)F)c2)cc1C(=O)Nc1nc(CN2CCN(C)CC2)ns1` [Compound C-58, 5-(3-(Difluoromethoxy)phenyl)-2-methyl-N-(3-((4-methylpiperazin-1-yl)methyl)-1,2,4-thiadiazol-5-yl)thiophene-3-carboxamide] belongs 9.79 µM; to `CC(=O)Cc1nsc(NC(=O)c2csc(-c3cccc(C(F)(F)F)c3)c2)n1` [Compound D-1, N-(3-(2-oxopropyl)-1,2,4-thiadiazol-5-yl)-5-(3-(trifluoromethyl)phenyl)thiophene-3-carboxamide], 25 µM.
The same measure for `CC(=O)Cc1nsc(NC(=O)c2csc(-c3cccc(C#N)c3)c2)n1` [Compound D-2, 5-(3-Cyanophenyl)-N-(3-(2-oxopropyl)-1,2,4-thiadiazol-5-yl)thiophene-3-carboxamide]: 32.6 µM.
`COc1cccc(-c2cc(C(=O)Nc3nc(CC(C)=O)ns3)cs2)c1` [Compound D-3, 5-(3-Methoxyphenyl)-N-(3-(2-oxopropyl)-1,2,4-thiadiazol-5-yl)thiophene-3-carboxamide]: the IC50 was 13.6 µM.
For `CC(=O)Cc1nsc(NC(=O)c2csc(-c3cccc(OC(F)(F)F)c3)c2)n1` [Compound D-4, N-(3-(2-oxopropyl)-1,2,4-thiadiazol-5-yl)-5-(3-(trifluoromethoxy)phenyl)thiophene-3-carboxamide], the IC50 worked out at 41.5 µM.
The same measure for `CC(=O)Cc1nsc(NC(=O)c2csc(-c3cccc(OC(F)F)c3)c2)n1` [Compound D-5, 5-(3-(Difluoromethoxy)phenyl)-N-(3-(2-oxopropyl)-1,2,4-thiadiazol-5-yl)thiophene-3-carboxamide]: 40 µM.
The same measure for `CC(Cc1nsc(NC(=O)c2csc(-c3cccc(C(F)(F)F)c3)c2)n1)N(C)C` [Compound D-6, N-(3-(2-(dimethylamino)propyl)-1,2,4-thiadiazol-5-yl)-5-(3-(trifluoromethyl)phenyl)thiophene-3-carboxamide]: 43.8 µM; for `CCN(CC)C(C)Cc1nsc(NC(=O)c2csc(-c3cccc(C(F)(F)F)c3)c2)n1` [Compound D-7, N-(3-(2-(diethylamino)propyl)-1,2,4-thiadiazol-5-yl)-5-(3-(trifluoromethyl)phenyl)thiophene-3-carboxamide]: 23.2 µM; for `CC(Cc1nsc(NC(=O)c2csc(-c3cccc(C#N)c3)c2)n1)N1CCCC1` [Compound D-12, 5-(3-Cyanophenyl)-N-(3-(2-(pyrrolidin-1-yl)propyl)-1,2,4-thiadiazol-5-yl)thiophene-3-carboxamide]: 13 µM.
The same measure for `COc1cccc(-c2cc(C(=O)Nc3nc(CC(C)N4CCCCC4)ns3)cs2)c1` [Compound D-14, 5-(3-Methoxyphenyl)-N-(3-(2-(piperidin-1-yl)propyl)-1,2,4-thiadiazol-5-yl)thiophene-3-carboxamide]: 37.2 µM; for `CC(Cc1nsc(NC(=O)c2csc(-c3cccc(OC(F)(F)F)c3)c2)n1)N1CCOCC1` [Compound D-16, N-(3-(2-morpholinopropyl)-1,2,4-thiadiazol-5-yl)-5-(3-(trifluoromethoxy)phenyl)thiophene-3-carboxamide]: 24.2 µM.
On to `CC(Cc1nsc(NC(=O)c2csc(-c3cccc(OC(F)F)c3)c2)n1)N1CCN(C)CC1` [Compound D-19, 5-(3-(Difluoromethoxy)phenyl)-N-(3-(2-(4-methylpiperazin-1-yl)propyl)-1,2,4-thiadiazol-5-yl)thiophene-3-carboxamide], for which the IC50 was found to be 19.2 µM.
With `CC(O)Cc1nsc(NC(=O)c2csc(-c3cccc(C(F)(F)F)c3)c2)n1` [Compound D-20, N-(3-(2-hydroxypropyl)-1,2,4-thiadiazol-5-yl)-5-(3-(trifluoromethyl)phenyl)thiophene-3-carboxamide], the IC50 was determined as 18.1 µM.
The same measure for `CC(O)(Cc1nsc(NC(=O)c2csc(-c3cccc(C(F)(F)F)c3)c2)n1)C(F)(F)F` [Compound D-25, N-(3-(3,3,3-trifluoro-2-hydroxy-2-methylpropyl)-1,2,4-thiadiazol-5-yl)-5-(3-(trifluoro-methyl)phenyl)thiophene-3-carboxamide]: 33 µM; for `CC(Cc1nsc(NC(=O)c2csc(-c3cccc(C(F)(F)F)c3)c2)n1)=C(F)F` [Compound D-30, N-(3-(3,3-difluoro-2-methylallyl)-1,2,4-thiadiazol-5-yl)-5-(3-(trifluoromethyl)phenyl)thiophene-3-carboxamide]: 34.8 µM; for `CC(F)(F)Cc1nsc(NC(=O)c2csc(-c3cccc(C(F)(F)F)c3)c2)n1` [Compound D-35, N-(3-(2,2-difluoropropyl)-1,2,4-thiadiazol-5-yl)-5-(3-(trifluoromethyl)phenyl)thiophene-3-carboxamide]: 49.5 µM.
The same measure for `O=C(Nc1nc(CCl)ns1)c1csc(-c2cccc(C(F)(F)F)c2)c1` [Compound D-40, N-(3-(chloromethyl)-1,2,4-thiadiazol-5-yl)-5-(3-(trifluoromethyl)phenyl)thiophene-3-carboxamide]: 21.5 µM; for `CN(C)Cc1nsc(NC(=O)c2csc(-c3cccc(C#N)c3)c2)n1` [Compound D-47, 5-(3-Cyanophenyl)-N-(3-((dimethylamino)methyl)-1,2,4-thiadiazol-5-yl)thiophene-3-carboxamide]: 25.3 µM; for `CCN(CC)Cc1nsc(NC(=O)c2csc(-c3cccc(OC)c3)c2)n1` [Compound D-50, N-(3-((diethylamino)methyl)-1,2,4-thiadiazol-5-yl)-5-(3-methoxyphenyl)thiophene-3-carboxamide]: 15 µM.
`O=C(Nc1nc(CN2CCCC2)ns1)c1csc(-c2cccc(OC(F)(F)F)c2)c1` [Compound D-53, N-(3-(pyrrolidin-1-ylmethyl)-1,2,4-thiadiazol-5-yl)-5-(3-(trifluoromethoxy)phenyl)thiophene-3-carboxamide]: the IC50 was 27.3 µM.
The same measure for `O=C(Nc1nc(CN2CCCCC2)ns1)c1csc(-c2cccc(OC(F)F)c2)c1` [Compound D-56, 5-(3-(Difluoromethoxy)phenyl)-N-(3-(piperidin-1-ylmethyl)-1,2,4-thiadiazol-5-yl)thiophene-3-carboxamide]: 42.1 µM; for `O=C(Nc1nc(CN2CCOCC2)ns1)c1csc(-c2cccc(OC(F)F)c2)c1` [Compound D-57, 5-(3-(Difluoromethoxy)phenyl)-N-(3-(morpholinomethyl)-1,2,4-thiadiazol-5-yl)thiophene-3-carboxamide]: 15 µM.
`CN1CCN(Cc2nsc(NC(=O)c3csc(-c4cccc(OC(F)F)c4)c3)n2)CC1` [Compound D-58, 5-(3-(Difluoromethoxy)phenyl)-N-(3-((4-methylpiperazin-1-yl)methyl)-1,2,4-thiadiazol-5-yl)thiophene-3-carboxamide]: the IC50 came out at 23.7 µM.
In the case of `CC(=O)Cc1nsc(NC(=O)c2cc(-c3cccc(C(F)(F)F)c3)oc2C(F)(F)F)n1` [Compound E-1, N-(3-(2-oxopropyl)-1,2,4-thiadiazol-5-yl)-2-(trifluoromethyl)-5-(3-(trifluoro-methyl)phenyl)furan-3-carboxamide], the half-inhibitory concentration (IC50) amounted to 1.06 µM.
For the molecule `CC(=O)Cc1nsc(NC(=O)c2cc(-c3cccc(C#N)c3)oc2C(F)(F)F)n1` [Compound E-2, 5-(3-Cyanophenyl)-N-(3-(2-oxopropyl)-1,2,4-thiadiazol-5-yl)-2-(trifluoromethyl)furan-3-carboxamide], the 50% inhibitory concentration (IC50) came to 2.23 µM.
The same measure for `COc1cccc(-c2cc(C(=O)Nc3nc(CC(C)=O)ns3)c(C(F)(F)F)o2)c1` [Compound E-3, 5-(3-Methoxyphenyl)-N-(3-(2-oxopropyl)-1,2,4-thiadiazol-5-yl)-2-(trifluoromethyl)furan-3-carboxamide]: 0.57 µM.

Values taken from patent US20240376091A1, “THIADIAZOLEAMIDE DERIVATIVES AND THEIR APPLICATIONS” (ZHEJIANG UNIVERSITY, priority 2021, published 2024).
